Key:
Type in all cases: functional, cell-based
[1] = molecular target: T1, Taste receptor type 2 member 7 (Homo sapiens) (UniProt Q9NYW3); assay: Agonist activity at N-terminal rat ST3 receptor-fused full length human TAS2R7 transiently expressed in HEK293T cells co-expressing Galpha16gust44 assessed as increase in intracellular calcium level by measuring deltaF/F0 ratio level by Fluo-4AM dye based FLIPR assay
T1 sequence (whole entry): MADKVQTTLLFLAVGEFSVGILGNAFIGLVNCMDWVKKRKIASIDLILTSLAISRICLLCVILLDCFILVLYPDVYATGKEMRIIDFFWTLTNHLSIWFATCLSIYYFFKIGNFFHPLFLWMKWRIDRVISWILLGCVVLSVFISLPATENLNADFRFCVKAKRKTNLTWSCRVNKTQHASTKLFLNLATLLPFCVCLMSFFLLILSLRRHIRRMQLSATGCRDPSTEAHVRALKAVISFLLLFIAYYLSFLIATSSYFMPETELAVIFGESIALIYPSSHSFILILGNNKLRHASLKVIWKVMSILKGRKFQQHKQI

[2] = molecular target: T1, Taste receptor type 2 member 7 (Homo sapiens); assay: (§1) Agonist activity at N-terminal rat ST3 receptor-fused full length human TAS2R7 transiently expressed in HEK293T cells co-expressing Galpha16gust44 assessed as increase in intracellular calcium level by measuring deltaF/F0 ratio level at 1.3 mM by Fluo-4AM dye based FLIPR assay
[3] = molecular target: T1, Taste receptor type 2 member 7 (Homo sapiens); assay: (§2) Agonist activity at N-terminal rat ST3 receptor-fused full length human TAS2R7 transiently expressed in HEK293T cells co-expressing Galpha16gust44 assessed as increase in intracellular calcium level by measuring deltaF/F0 ratio level at 2.60 mM by Fluo-4AM dye based FLIPR assay
[4] = molecular target: T1, Taste receptor type 2 member 7 (Homo sapiens); assay: as §2, with “stably” for “transiently”, “assay (reference value: 0.65 +/- 0.13)” for “assay”
[5] = molecular target: T1, Taste receptor type 2 member 7 (Homo sapiens); assay: as §1, with “stably” for “transiently”, “0.65” for “1.3”, “assay (reference value: 0.41 +/- 0.14)” for “assay”
[6] = molecular target: T1, Taste receptor type 2 member 7 (Homo sapiens); assay: as §1, with “stably” for “transiently”, “assay (reference value: 0.53 +/- 0.1)” for “assay”
[7] = molecular target: T1, Taste receptor type 2 member 7 (Homo sapiens); assay: as §1, with “stably” for “transiently”, “0.33” for “1.3”, “assay (reference value: 0.34 +/- 0.06)” for “assay”
[8] = molecular target: T1, Taste receptor type 2 member 7 (Homo sapiens); assay: as §1, with “stably” for “transiently”, “0.16” for “1.3”, “assay (reference value: 0.15 +/- 0.06)” for “assay”
[9] = molecular target: T1, Taste receptor type 2 member 7 (Homo sapiens); assay: as §1, with “stably” for “transiently”, “0.08” for “1.3”, “assay (reference value: 0.1 +/- 0.04)” for “assay”
[10] = molecular target: T1, Taste receptor type 2 member 7 (Homo sapiens); assay: as §1, with “stably” for “transiently”, “0.04” for “1.3”, “assay (reference value: 0.08 +/- 0.03)” for “assay”
[11] = molecular target: T1, Taste receptor type 2 member 7 (Homo sapiens); assay: as §1, with “stably” for “transiently”, “0.02” for “1.3”, “assay (reference value: 0.08 +/- 0.03)” for “assay”
[12] = molecular target: T1, Taste receptor type 2 member 7 (Homo sapiens); assay: as §1, with “stably” for “transiently”, “0.01” for “1.3”, “assay (reference value: 0.09 +/- 0.04)” for “assay”
[13] = molecular target: T1, Taste receptor type 2 member 7 (Homo sapiens); assay: Agonist activity at N-terminal rat ST3 receptor-fused full length human TAS2R7 transiently expressed in HEK293T cells co-expressing Galpha16gust44 assessed as increase in intracellular calcium level by measuring deltaF/F0 ratio level at 0.65 mM by Fluo-4AM dye based FLIPR assay
[14] = molecular target: T1, Taste receptor type 2 member 7 (Homo sapiens); assay: Agonist activity at N-terminal rat ST3 receptor-fused full length human TAS2R7 transiently expressed in HEK293T cells co-expressing Galpha16gust44 assessed as increase in intracellular calcium level by measuring deltaF/F0 ratio level at 0.33 mM by Fluo-4AM dye based FLIPR assay
[15] = molecular target: T1, Taste receptor type 2 member 7 (Homo sapiens); assay: Agonist activity at N-terminal rat ST3 receptor-fused full length human TAS2R7 transiently expressed in HEK293T cells co-expressing Galpha16gust44 assessed as increase in intracellular calcium level by measuring deltaF/F0 ratio level at 0.16 mM by Fluo-4AM dye based FLIPR assay
[16] = molecular target: T1, Taste receptor type 2 member 7 (Homo sapiens); assay: Agonist activity at N-terminal rat ST3 receptor-fused full length human TAS2R7 transiently expressed in HEK293T cells co-expressing Galpha16gust44 assessed as increase in intracellular calcium level by measuring deltaF/F0 ratio level at 0.08 mM by Fluo-4AM dye based FLIPR assay
[17] = molecular target: T1, Taste receptor type 2 member 7 (Homo sapiens); assay: Agonist activity at N-terminal rat ST3 receptor-fused full length human TAS2R7 transiently expressed in HEK293T cells co-expressing Galpha16gust44 assessed as increase in intracellular calcium level by measuring deltaF/F0 ratio level at 0.04 mM by Fluo-4AM dye based FLIPR assay
[18] = molecular target: T1, Taste receptor type 2 member 7 (Homo sapiens); assay: Agonist activity at N-terminal rat ST3 receptor-fused full length human TAS2R7 transiently expressed in HEK293T cells co-expressing Galpha16gust44 assessed as increase in intracellular calcium level by measuring deltaF/F0 ratio level at 0.02 mM by Fluo-4AM dye based FLIPR assay
[19] = molecular target: T1, Taste receptor type 2 member 7 (Homo sapiens); assay: Agonist activity at N-terminal rat ST3 receptor-fused full length human TAS2R7 transiently expressed in HEK293T cells co-expressing Galpha16gust44 assessed as increase in intracellular calcium level by measuring deltaF/F0 ratio level at 0.01 mM by Fluo-4AM dye based FLIPR assay

CC(C)[C@H]1CC[C@H](C)C[C@@H]1O
Activity [1]: Dose-dependent effect

CC(C)[C@@H]1CC[C@@H](C)C[C@H]1O
Ratio [2]: 0.53 | Ratio [3]: 0.65 | Ratio [4]: 0.92 | Ratio [5]: 1.03 | Ratio [6]: 1.16 | Ratio [7]: 0.61 | Ratio [8]: 0.23 | Ratio [9]: 0.12 | Ratio [10]: 0.13 | Ratio [11]: 0.09 | Ratio [12]: 0.09 | Ratio [13]: 0.41 | Ratio [14]: 0.34 | Ratio [15]: 0.15 | Ratio [16]: 0.1 | Ratio [17]: 0.08 | Ratio [18]: 0.08 | Ratio [19]: 0.09 | Activity [1]: Dose-dependent effect

Reference: ChEMBL document CHEMBL4482301, “Methods to identify modulators” (2012)
